Assay [1] concerns the target T1, SERCA2a (Mus musculus, UniProt O55143).
T1 construct: host or cells: HL-1 cells
The assay can be described thus: Caffeine-induced Ca2+ release assay in HL-1 cells (FLIPR Calcium 6). Type of assay: cell-based. Particulars: for SERCA2a HL-1 effect class: 10 μM (25 μM for 11d), caffeine assay; for effect on caffeine-induced Ca2+ release (in words): 2 h incubation at various concentrations. From the text:
It is known that caffeine stimulates the release of calcium from intracellular stores in cells by acting as a RyR activator.[39],[40] The binding site for caffeine is located on the cytosolic side of the protein between the C-terminal and the S2S3 domain.[41] When caffeine binds to RyR2, it interacts with specific amino acids on the protein, which causes conformational changes in the protein’s structure.[42] This opens the RyR2 channel pore, enabling the mass release of calcium ions from the SR. We investigated the effect of caffeine-induced Ca^2+ release in HL-1 cells treated with cytosolic Ca^2+ indicator FLIPR Calcium 6 (Molecular Devices). The HL-1 cell line is an immortalized mouse cardiomyocyte cell line commonly used to study the effects of various substances on cell function.[43] If the tested compound modulates SERCA2a activation, it will cause an increase in Ca^2+ concentration in the SR and the effect of a fixed dose of caffeine on SR Ca^2+ release will be potentiated by increasing doses of a proposed SERCA activator.[26] As a positive control, we used CDN1163, a small-molecule SERCA activator, which is at present in a clinical trial due to its potential therapeutic use for certain cardiac conditions.[27]
HL-1 cells (50,000 per well) were cultivated for 24 h in black-walled, clear-bottom 96-well microplates (Corning, Amsterdam, The Netherlands) covered with fibronectin/gelatin (Merck KGaA, Darmstadt, Germany) in a humidified incubator at 37 °C and 5% CO2.
Changes in Ca^2+ concentration were measured on a multiwell plate reader TECAN Spark 20 M using a FLIPR 6 Calcium Assay Kit from Molecular Devices (Molecular Devices LLC, München, Germany) at 37 °C. The 1000 × stock solutions of the test compounds were prepared in DMSO. A 100 μL solution of test compound in Tyrode’s solution containing FLIPR Calcium 6 dye was incubated for 2 h at 37 °C and 5% CO2 in a humidified incubator. The time courses were recorded in each well. Fluorescence was evoked at 485 nm excitation wavelength and read out in a bottom-read mode at 525 nm. Data were recorded every 2 s, exposure −20 flashes, excitation bandwidth −10 nm, emission bandwidth −15 nm. To initiate Ca^2+ influx, 25 μL of 50 mM caffeine solution in Tyrode’s solution containing 2 mM CaCl2 was injected in each well (speed 100 μL/s) at the 10 s time point, resulting in 10 mM final concentration in the well. The differences between the caffeine-induced peak minus basal fluorescence, ΔFCaff, were taken into account for the analysis. The Tyrode’s solution +0.1 v/v% DMSO was used as a control. The dose–response curves were calculated using the software package GraphPad Prism version 8.3.1. All data are presented as mean ± SD from eight independent experiments. Y = bottom + (top – bottom)/(1 + 10^((LogEC50 – X) × HillSlope)) was used, where HillSlope describes the steepness of the curve and top and bottom are plateaus in the units of the Y axis.

In assay [2] the target is T1, SERCA2a. The experiment in a line: NADH-coupled ATPase assay on mouse heart ventricular SR microsomes (mouse SR). Format: biochemical. Particulars: for SERCA2a mouse SR effect class: 10 μM (3 μM for 12b per Figure 6c), microsomal membrane vesicles; for SERCA2a ATPase activity in mouse SR vesicles (in words): 10 μM, vs 0.1 v/v% DMSO. The source says:
Cyclopropanol derivatives have a variety of biological activities including enzyme inhibition and antibacterial and anticancer properties.[47]−[50] However, there have been no published reports on cyclopropanol-containing molecules specifically acting as modulators of RyRs and/or activators of SERCA. To investigate more directly whether the compounds influence the SERCA2 activity, we performed nicotinamide adenine dinucleotide (NADH) fluorescence-coupled ATPase assay according to Radnai et al.[51] In this assay, the change in NADH coenzyme fluorescence reflects the level of the consumption of ATP, which we took as indicator of SERCA2 activity.[51],[52] ATP hydrolysis by SERCA2 is required to pump calcium ions into the SR. We assume that a higher rate of ATP hydrolysis reflects an increase in SERCA2 ATPase activity that leads to a greater pumping of calcium ions into the SR.
We observed the rate of NADH oxidation, which is coupled to ATP hydrolysis, by measuring changes in NADH intrinsic fluorescence over time after ATP injection into microsomal membranes enriched in SR vesicles isolated from mouse heart ventricles (mouse SR) and HEK-293T cells (HEK-293 ER). The presence of SERCA2 in mouse SR and HEK-293 ER of isolated microsomal vesicles was confirmed by Western blotting (Figures S5 and S6; for details see Experimental Section). The NADH fluorescence decrease was recorded on a multiwell plate reader TECAN Spark 20M (λex = 380 nm, λem = 470 nm). […] Consistent with our previous experiment on HL-1 cells, we observed a strong decrease in NADH fluorescence reflecting an increase in SERCA2a activity in SR microsomes derived from mouse heart ventricles (n = 3–5) in solutions containing the tested compounds compared to the 0.1 v/v% DMSO sample (Figure 6). […] Similar results were obtained in cardiac SR vesicles from the mouse heart. […] This difference may indicate isoform-specific effects of our compound in HEK-293 cells expressing mostly SERCA2b[53] versus mouse SR vesicles containing mostly SERCA2a.[54] In both experiments, we used CDN1163 as a positive control.
All animal procedures were performed in accordance with Directive 2010/63/EU of the European Parliament and the Council on the protection of animals used in research as well as Animal Welfare Law of the Federal Republic of Germany (Tierschutzgesetz der Bundesrepublik Deutschland, TierSchG). […] All mice were housed with a 12 h light/dark cycle with free access to food and water. Adult C57BL/6N mice of both genders were sedated with isoflurane in a sealed container and quickly euthanized by cervical dislocation. Heart ventricles were taken out instantly, washed with ice-cold PBS plus complete, cut into smaller pieces, and snap frozen in liquid nitrogen straight away.
Lysis buffer thawed on ice (10 mM EDTA, 10 mM HEPES, cOmplete, pH 7.4) was added, and the ventricles were homogenized with a Qiagen Cellruptor for 20 s. On ice, an equal volume of restoration buffer (500 mM sucrose, 10 mM HEPES, cOmplete, pH7.2) was added and briefly mixed. The homogenate was centrifuged at 10^4 × g for 20 min at 4 °C. The supernatant was collected and centrifuged again for another hour (10^5 × g at 4 °C). Then, the pellet was carefully resuspended in resuspension buffer (250 mM sucrose, 10 mM HEPES, cOmplete, pH 7.2) on ice by pipetting the solution up and down until fully dissolved. The obtained solution was diluted to a protein concentration of 5 μg/μL with the resuspension buffer, and the aliquots were snap frozen in liquid nitrogen and then stored at −80 °C until usage.
To determine whether new compounds could increase the SERCA2 activity, HEK-293 microsomes (40–150 μg of total protein) or mouse ventricular microsomes (1–20 μg of total protein) were diluted in 100 μL of the assay buffer used for measurement of SERCA activity (described below) and incubated at room temperature for 5 min prior to the experiments. […]

“Also recorded” adds a separate entry of the source.

T1 sequence (O55143 1-998 isoform O55143-2): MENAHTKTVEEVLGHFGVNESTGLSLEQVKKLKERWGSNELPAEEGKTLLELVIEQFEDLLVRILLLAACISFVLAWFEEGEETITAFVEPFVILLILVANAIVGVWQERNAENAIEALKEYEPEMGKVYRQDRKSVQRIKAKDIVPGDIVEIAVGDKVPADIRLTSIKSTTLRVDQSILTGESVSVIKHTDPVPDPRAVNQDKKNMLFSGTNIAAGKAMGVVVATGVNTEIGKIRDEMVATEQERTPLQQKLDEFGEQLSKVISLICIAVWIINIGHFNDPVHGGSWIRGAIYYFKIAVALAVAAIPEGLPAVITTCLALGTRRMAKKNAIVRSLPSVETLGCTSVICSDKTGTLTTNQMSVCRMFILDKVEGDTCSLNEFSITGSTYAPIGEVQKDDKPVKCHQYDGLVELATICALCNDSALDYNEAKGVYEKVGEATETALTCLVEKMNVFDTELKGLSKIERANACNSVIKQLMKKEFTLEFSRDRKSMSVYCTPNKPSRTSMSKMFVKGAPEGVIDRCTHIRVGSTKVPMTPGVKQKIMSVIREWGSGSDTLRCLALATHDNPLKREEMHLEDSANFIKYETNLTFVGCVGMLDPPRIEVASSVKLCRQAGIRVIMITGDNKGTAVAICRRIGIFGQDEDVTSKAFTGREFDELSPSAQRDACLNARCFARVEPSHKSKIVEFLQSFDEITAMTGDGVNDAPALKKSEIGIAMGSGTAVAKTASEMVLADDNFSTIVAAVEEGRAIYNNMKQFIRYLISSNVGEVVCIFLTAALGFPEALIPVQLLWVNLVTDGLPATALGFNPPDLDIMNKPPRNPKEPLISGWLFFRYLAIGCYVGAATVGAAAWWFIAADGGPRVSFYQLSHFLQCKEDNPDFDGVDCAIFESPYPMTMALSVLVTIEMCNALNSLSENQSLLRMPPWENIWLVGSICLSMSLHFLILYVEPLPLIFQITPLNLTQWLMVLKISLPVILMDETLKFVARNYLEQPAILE

For the molecule `COc1ccc2c(c1)CN(CCCCNCCCCC1(O)CC1)CCS2` [11a, 1-(4-((4-(7-Methoxy-2,3-dihydrobenzo[1,4-f]thiazepin-4(5H)-yl)butyl)amino)butyl)cyclopropan-1-ol], the “SERCA2a HL-1 effect class” value at SERCA2a [1] is “+”. The “effect on caffeine-induced Ca2+ release (in words)” value (from here on “effect … (in words)”) at SERCA2a [1] (HL-1 cells, 10 mM caffeine) is recorded as “most potent”. Besides, the “SERCA2a mouse SR effect class” value on SERCA2a [2] is reported as “+”.

As to `COc1ccc(OCCCNCCCCC2(O)CC2)cc1` [11b, 1-(4-((3-(4-Methoxyphenoxy)propyl)amino)butyl)cyclopropan-1-ol], the “SERCA2a HL-1 effect class” value at SERCA2a [1] is “++”. Further, the “SERCA2a mouse SR effect class” value at SERCA2a [2] was “+”.

Regarding `COc1ccc(SCCCNCCCCC2(O)CC2)cc1` [11c, 1-(4-((3-((4-Methoxyphenyl)thio)propyl)amino)butyl)cyclopropan-1-ol], the “SERCA2a HL-1 effect class” value at SERCA2a [1] is “++”. Besides, the “SERCA2a mouse SR effect class” value at SERCA2a [2] was “+++”.

Take `COc1ccc2c(c1)CN(CCCCC1(O)CC1)CCS2` [11d, 1-(4-(7-Methoxy-2,3-dihydrobenzo[1,4-f]thiazepin-4(5H)-yl)butyl)cyclopropan-1-ol]: the “SERCA2a HL-1 effect class” value on SERCA2a [1] is “+”. For the same molecule, the “effect … (in words)” value at SERCA2a [1] (HL-1 cells, 10 mM caffeine) is given as “least efficacious; also recorded: no saturation effect at concentrations up to 50 μM; also recorded: slight”. Besides, on SERCA2a [2], the “SERCA2a mouse SR effect class” value is recorded as “++” and the “SERCA2a ATPase activity in mouse SR vesicles (in words)” value is “moderate”.

For orientation: EC50 means the concentration at which the effect is half-maximal. For the molecule `COc1ccc2c(c1)CN(CCCCN(CCCCC1(O)CC1)CCCCC1(O)CC1)CCS2` [12a, 1,1′-(((4-(7-Methoxy-2,3-dihydrobenzo[1,4-f]thiazepin-4(5H)-yl)butyl)azanediyl)bis(butane-4,1-diyl))bis(cyclopropan-1-ol)], at SERCA2a [1], the “SERCA2a HL-1 effect class” value is given as “++”. Also, the EC50 at SERCA2a [1] (HL-1 cells, 10 mM caffeine, value, interval) was 9.2 µM; at SERCA2a [2] (ATPase activity, value, interval), 0.383 µM. The “SERCA2a mouse SR effect class” value at SERCA2a [2] was “+++”.

Turning to `COc1ccc(SCCCN(CCCCC2(O)CC2)CCCCC2(O)CC2)cc1` [12c, 1,1′-(((3-((4-Methoxyphenyl)thio)propyl)azanediyl)bis(butane-4,1-diyl))bis(cyclopropan-1-ol)], at SERCA2a [1], the “SERCA2a HL-1 effect class” value was “+++ and ++”. For the same molecule, at SERCA2a [1] (HL-1 cells, 10 mM caffeine), the “effect … (in words)” value is reported as “most efficacious; also recorded: stronger activating effect on caffeine-induced Ca^2+ release at concentrations above 10 μM”. For the same molecule, the “SERCA2a mouse SR effect class” value at SERCA2a [2] was “+”.

With `COc1ccc2c(c1)CN(Cc1ccc(C(=O)O)cc1)CCS2` [ARM210, reference compound], the “SERCA2a HL-1 effect class” value at SERCA2a [1] is reported as “+”. In addition, on SERCA2a [1] (HL-1 cells, 10 mM caffeine), the “effect … (in words)” value is recorded as “clear concentration-dependent effect”. Besides, at SERCA2a [2], the “SERCA2a mouse SR effect class” value was “++” and the “SERCA2a ATPase activity in mouse SR vesicles (in words)” value is on record as “improvement of ATPase activity”.
